Data: US20090075941A1, “TREATING NEOPLASMS” (THE UAB RESEARCH FOUNDATION, priority 2006, published 2009)

Experiments:
[1] = test system: unprenylated Rap1A in AB-12 mesothelioma cells; assay: Western blot, unprenylated Rap1A (Example 2); assay type: cell-based, mouse; details: AB-12 cells; 24 h
Experimental: (§1) Western blot analysis. Cells were cultured on 6-well plates in normal culture medium until near confluency. The cells were then rinsed with sterile PBS and cultured for further 24 h in serum-tree culture medium, in the presence or absence of the indicated bisphosphonates. Some cultures were also treated with 25 μM geranylgeraniol (cold, all trans), 1.0 μg/ml LPS (Sigma; St. Louis, Mo.) 10 ng/ml IL-1β (R&D Systems; Minneapolis, Minn.) or TNF-α (R&D Systems). To study bisphosphonate effects on connexin-43 expression, the cells were cultured for 24 h in serum-free culture medium in the presence of the indicated bisphosphonates or PBS as a vehicle control. Culture medium was then discarded, the cells were quickly lysed and prepared into Western blot samples, as described in Merrell et al. (2000) Breast Cancer Res. Treat. 81, 231-241. After boiling the supernatants in reducing sodium docedyl sulfate (SDS) sample buffer, equal amounts of protein (˜20-50 μg) were loaded per lane and the samples were electrophoresed on 10% SDS polyacrylamide gel and transferred to a nitrocellulose membrane. To detect, unprenylated Rap1A, the blots were incubated overnight at 4° C. with the antibody SC-1482 (Santa Cruz Technology (San Diego, Calif.)), diluted 1:1000 in Tris-buffered saline, 0.1% (v/v) Tween-20 (TEST), and then with peroxidase-conjugated anti-goat serum (Pierce; Rockford, Ill.), diluted 1:1000 in TBST. Total Rap1 was detected from stripped blots in a similar fashion, with the antibody SC-65 (Santa Cruz Technology). The phosphorylation status of p38 was investigated using anti-phospho-p38 (Cell Signaling; Beverly, Mass.) and after stripping of the membrane, with anti-total p38 antibodies (Cell Signaling), according to the manufacturer's instructions. Expression of connexin-43 was detected with a rabbit anti-connexin-43 antibody (Zymed Laboratories, Inc.; San Francisco, Calif.), diluted 1:1000 in TBST. The protein bands were visualized by chemiluminescence using SuperSignal West Pico ECL kit (Pierce Biotechnology, Inc.; Rockford, Ill.).

[2] = test system: p38 phosphorylation in AC29 cells; assay: Western blot, phosphorylation of p38 (Example 1); assay type: cell-based, mouse; details: 24 h
Experimental: (§2) Western blotting. AB12 and AC29 cells were plated on 6-well plates in normal culture medium until near confluency. The cells were then rinsed with sterile PBS and cultured for further 24 h in serum-free culture medium, in the presence or absence of 2×10^−4-10^−5 M risedronate, zoledronate or PBS control, with or without 25 μM geranylgeraniol, or the same volume of ethanol as a vehicle control. Culture medium was discarded and the cells were harvested in lysis buffer (20 mM Tris pH 7.4, 150 mM NaCl, 1 mM EDTA, 1 mM EGTA, 1% Triton, 2.5 mM sodium pyrophosphate, 1 mM β-glycerolphosphate, 1 mM Na3VO4, 1 μg/ml leupeptin (Cell Signaling Technology, Inc.; Danvers, Mass.)) and clarified by centrifugation. After boiling the supernatants in reducing SDS sample buffer, equal amounts of protein (˜50 μg) were loaded per lane and the samples were electrophoresed on 10% polyacrylamide SDS gel and transferred to a nitrocellulose membrane. Unprenylated Rap1A was detected with the antibody SC-1482 and total Rap1 (both prenylated and unprenylated forms of both Rap1A and Rap1B) was detected with the antibody SC-65 (Santa Cruz Biotechnology, Inc.; Santa Cruz, Calif.), according to the manufacturer's recommendations. The phosphorylation status of p38 was studied with anti-phospho-p38 and anti-total p38 antibodies (Cell Signaling Technology, Inc.), as recommended by the manufacturer. […]

[3] = test system: p38 phosphorylation in AB12 cells; assay: Western blot, phosphorylation of p38 (Example 1); assay type: cell-based, mouse; details: 24 h
Experimental: as §2

J774 cells = assay: Cell viability, MTS-assay; assay type: cell-based
Experimental: Cell viability assays. Cells were plated on 96-well plates at the density of 1×10^3 cells in 100 μl per well in normal culture medium, with or without of the indicated concentrations of the various bisphosphonate combinations and or 1 mM CaCl2, 1 mM EGTA or vehicle and cultured for 48 h. Cell viability was assessed with 3-(4,5-dimethylthiazol-2-yl)-5-(3-carboxy tetrazolium, inner salt (MTS)-assays (CellTiter Aqueous One 96 from Promega; Madison, Wis.) according to the manufacturer's instructions. For each treatment, a PBS-control group was run simultaneously on the same plate. The results for each treatment were calculated as % of the corresponding PBS-group.

[4] = test system: unprenylated Rap1A in MDA-MB-231 breast cancer cells; assay: Western blot, unprenylated Rap1A (Example 2); assay type: cell-based, human; details: MDA-MB-231 cells; 24 h
Experimental: as §1

AB12 cells = assay: Subcutaneous mouse mesothelioma model, tumor volume; assay type: in vivo; details: AB12 s.c. in BALB/c mice; risedronate 15 mg/kg (P<0.02), zoledronate 0.5 mg/kg (P<0.003); every six days, 4 treatments from day 10
Experimental: In vivo mesothelioma models. Female BALB/c mice, four to eight weeks of age, were obtained from the National Cancer Institute-Frederick Cancer Research Facility (Frederick, Md.) and were housed in the Pathogen-Free Rodent Shared Facility (Comprehensive Cancer Center, University of Alabama at Birmingham). All animal procedures were performed, in accordance with recommendations for the proper care and use of laboratory animals and were approved by the local IACUC. Subcutaneous (s.c.) and intraperitoneal (i.p.) mouse mesothelioma models were evaluated. In the s.c. model, 3×10^6 AB12 cells were first injected s.c. into cohorts of BALB/c mice. Treatments with i.p. BPs or vehicle were started when tumors became palpable on day 10 and continued every six days for a total of 4 treatments. Tumor size was measured bidimensionally with calipers every two to three days and tumor volume calculated by the formula (length×width^2)÷2. Mice were euthanized before tumors reached the size of 2000 mm^3. In the i.p. model, AC29 or AB12 cells (5×10^5/0.5 ml) were injected i.p, into cohorts of 10-12 BALB/c using a 26-gauge needle. Treatment was initiated 6 days after tumor inoculation and the mice were followed for survival. In the i.p. model risedronate (15 mg/kg), zoledronate (0.5 mg/kg) or PBS were administered i.p. three times a week for two weeks.

O=P(O)(O)C(O)(Cc1cccnc1)P(=O)(O)O [risedronate]
accumulation of unprenylated Rap1A [1]: dose-dependent accumulation
p38 phosphorylation [2]: dose-dependent increase
p38 phosphorylation [3]: dose-dependent increase
effect of added EGTA on the bisphosphonate's growth inhibitory effect (J774 cells; 1 mM EGTA, N-BP 10^−4 M or clodronate 10^−3 M): reversed
cell viability (J774 cells; 10^−4 M): significantly decreased cellular viability
effect of excess clodronate on the viability change induced by the nitrogen-containing bisphosphonate (J774 cells; N-BP 10^−4 M + clodronate 10^−3 M): significantly reversed
effect of excess etidronate on the viability change induced by the nitrogen-containing bisphosphonate (J774 cells; N-BP 10^−4 M + etidronate 10^−3 M): reversed
accumulation of unprenylated Rap1A [4]: dose-dependent accumulation
subcutaneous tumor growth (AB12 cells): inhibited subcutaneous tumor growth
